Assays:
Assay type in all cases: cell-based, yeast
cytokinin receptor AHK2Δ = biological target: T1, cytokinin receptor AHK2Δ (Arabidopsis thaliana, UniProt Q9C5U2); parameters: added initiator methionine (ATG added at the 5' end) (N); expressed in transfected cells; host or cells: yeast strain TM182 carrying plasmid p415CYC-AHK2Δ (pHM-1 backbone, CYC1 promoter); details: TM182-AHK2Δ, examinee substance 100 μM, DOLU+Glu, 30° C. for 24 hours
T1 sequence (Q9C5U2 196-1176): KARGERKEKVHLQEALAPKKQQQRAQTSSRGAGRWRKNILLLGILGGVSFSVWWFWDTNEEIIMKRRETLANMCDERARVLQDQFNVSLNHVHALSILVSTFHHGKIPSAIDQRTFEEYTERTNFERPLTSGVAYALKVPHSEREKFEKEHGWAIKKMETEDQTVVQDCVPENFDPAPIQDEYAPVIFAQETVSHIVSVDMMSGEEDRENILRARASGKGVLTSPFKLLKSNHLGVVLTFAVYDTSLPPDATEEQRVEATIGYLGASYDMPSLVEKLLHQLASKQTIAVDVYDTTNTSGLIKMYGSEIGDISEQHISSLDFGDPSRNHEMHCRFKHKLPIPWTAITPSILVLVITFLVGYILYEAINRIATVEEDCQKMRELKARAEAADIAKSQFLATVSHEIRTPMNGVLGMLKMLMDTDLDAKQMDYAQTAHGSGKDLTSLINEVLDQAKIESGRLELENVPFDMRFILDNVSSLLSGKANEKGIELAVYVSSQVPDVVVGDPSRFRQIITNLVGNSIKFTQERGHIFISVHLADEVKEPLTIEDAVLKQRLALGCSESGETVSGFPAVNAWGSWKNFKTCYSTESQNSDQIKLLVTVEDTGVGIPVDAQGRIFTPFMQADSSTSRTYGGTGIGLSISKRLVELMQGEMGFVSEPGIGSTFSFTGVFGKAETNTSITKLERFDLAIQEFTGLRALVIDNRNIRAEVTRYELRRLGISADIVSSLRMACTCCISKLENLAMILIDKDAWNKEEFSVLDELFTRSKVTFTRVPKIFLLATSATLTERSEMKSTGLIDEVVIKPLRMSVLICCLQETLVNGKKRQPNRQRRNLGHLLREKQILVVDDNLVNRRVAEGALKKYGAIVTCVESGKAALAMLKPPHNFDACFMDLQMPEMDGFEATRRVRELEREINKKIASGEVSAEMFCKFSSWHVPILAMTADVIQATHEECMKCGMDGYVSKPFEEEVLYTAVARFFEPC
Description: The transformed cells TM182-AHK2, TM182-AHK2Δ and TM182-AHK3 produced in the reference example 1 were inoculated in 200 ml of DOLU+Gal culture media and pre-cultured at 30° C. for 36 hours. The pre-cultured solutions were diluted with DOLU+Glu media as to become 0.100 as the optical density (OD600) and further the resultants were diluted with DOLU+Glu media at a dilution rate of 1/200 to obtain diluted pre-cultured solutions.
An assay plate was prepared by filling respective wells of a 96-well plate with 20 μl of solutions which were prepared by diluting DMSO solution (10 mM) of each examinee substance with DOLU+Glu medium at a dilution rate of 1/100, said solutions containing each examinee substance to be […]. […]
The diluted pre-cultured solutions were added in 200 μl each into the respective wells of both assay plates and cultured at 30° C. for 24 hours and then the optical density (OD620) of each well was measured by a plate reader. The agonist-activity of the examinee substances to the cytokinin receptor was detected by comparing the optical density measured in the testing sections to which the examinee substances were added with the optical density measured in the blank sections.

[1] = tested on: transformed cells TM182-AHK2-ADHIPT5; test: Liquid culture of transformed cell TM182-AHK2-ADHIPT5 with examinee substance, absorbance; details: Table 4, TM182-AHK2-ADH-IPT5, 1 μL of 200 ppm DMSO solution per 100 μL, DOHLU+Glu, 30° C. for 24 hours
Description: (§1) The thus obtained culture solutions were diluted with DOHLU+Glu culture medium so that OD600 became 0.200, and then the diluted ones were further diluted with DOHLU+Glu culture medium at a dilution rate of 1/200 to obtain diluted pre-cultured solutions.
(§2) A 96-well assay plate was prepared by filling each well with 1 μL of a DMSO solution of an examinee substance (Abscisic acid or 6-Benzyl aminopurine). In this regard, it is to be noted that the DMSO solution of a examinee substance was prepared so that the concentration thereof became 200 ppm. Simultaneously, an assay plate was prepared by filling each well with 1 μL of DMSO as a blank section.
(§3) Each of the diluted pre-cultured solutions was added in a volume of 100 μL per each well of both of the assay plates, and was cultured at 30° C. for 24 hours. After incubation, the turbidity of each well was measured using a plate reader. The absorbance (OD600) of each of the culture solutions of the transformed cells containing the examinee substance was shown in Table 4. […] Further, the growth speeds of the transformed cells TM182-CRE1-ADHIPT4, TM182-AHK2-CYC1IPT4, TM182-AHK2-CYC1IPT5 and TM182-AHK2-ADHIPT5 in the culture medium to which 6-Benzyl aminopurine was added were faster than those in the culture medium to which only DMSO was added.

[2] = tested on: transformed cells TM182-AHK2-CYC1IPT5; test: Liquid culture of transformed cell TM182-AHK2-CYC1IPT5 with examinee substance, absorbance; details: Table 4, TM182-AHK2-CYC1-IPT5, 1 μL of 200 ppm DMSO solution per 100 μL, DOHLU+Glu, 30° C. for 24 hours
Description: as §1, §2, §3

[3] = tested on: transformed cells TM182-CRE1-ADHIPT5; details: Table 3, TM182-CRE1-ADH-IPT5, 1 μL of 200 ppm DMSO solution per 100 μL, DOHLU+Glu, 30° C. for 24 hours
Description: Each of the transformed cells TM182-CYC1-CYC1IPT4, TM182-CYC1-ADHIPT4, TM182-CYC1-CYC1IPT5, TM182-CYC1-ADHIPT5, TM182-CRE1-CYC1IPT4, and TM182-CRE1-ADHIPT5 obtained in Example 16 was inoculated in 200 mL of DOHLU+Gal culture medium, and was pre-cultured at 30° C. for 36 hours. The thus obtained culture solutions were diluted with DOHLU+Glu culture medium so that OD600 became 0.200, and then the diluted ones were further diluted with DOHLU+Glu culture medium at a dilution rate of 1/200 to obtain diluted pre-cultured solutions.
as §2
Each of the diluted pre-cultured solutions was added in a volume of 100 μL per each well of both of the assay plates, and was cultured at 30° C. for 24 hours. After incubation, the turbidity of each well was measured using a plate reader.

SMILES | optical density (OD620) of the culture solution (cytokinin receptor AHK2Δ) | absorbance (OD600) of the culture solution [1] | absorbance (OD600) of the culture solution [2] | absorbance (OD600) of the culture solution [3]
CC1=CC(=O)CC(C)(C)[C@@]1(O)/C=C/C(C)=C\C(=O)O [Compound A, Abscisic acid] | 0 | 0.297 | 0.069 | 0.131
c1ccc(CNc2ncnc3nc[nH]c23)cc1 [Compound B, 6-Benzyl aminopurine] | 0.89 | 0.427 | 0.430 | 0.293
